Test systems include A498; ACHN; CCRF-CEM; HCC 2998; HT-29; K562; MCF7; MDA-MB-231; NCI-H226; NCI-H23; NCI-H460; RPMI-8226; SF-295; SK-MEL-28; SK-MEL-5; SN12C; T47D; BT-549; HCT-15.
What all share (experiment): NCI tumour cell line growth inhibition, 48 h

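Exposure lasted 48 hours, with cells grown in 96-well plates and compounds tested at five concentrations. Here, GI50 denotes the concentration required for 50% inhibition of growth.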 Calls of active or inactive are those of the source. Cut-off read from the data, not from the text of the source: active = GI50 up to about 1.1 µM and inactive = higher.

Turning to `Oc1ccc(Cl)cc1CN1CCN(Cc2cc(Cl)ccc2O)C1`, the GI50 in the experiment with A498 is 16 µM (inactive); in the experiment on ACHN it was 0.465 µM (active); with CCRF-CEM it was 0.0603 µM (active); in the experiment with HCC 2998, 1.03 µM (active); in the experiment on HT-29, 1.87 µM (inactive); in the experiment with K562 it was 1.39 µM (inactive). The GI50 is 10.5 µM (inactive) in the experiment with MCF7; 0.403 µM (active) in the experiment with MDA-MB-231; 1.39 µM (inactive) in the experiment with NCI-H226; 1.19 µM (inactive) in the experiment on NCI-H23; 0.218 µM (active) in the experiment with NCI-H460; 2.27 µM (inactive) in the experiment with RPMI-8226. Further, the GI50 with SF-295 is 0.682 µM (active); with SK-MEL-28, 1.65 µM (inactive); with SK-MEL-5, 0.973 µM (active); in the experiment on SN12C it was 1.11 µM (active); in the experiment on T47D, 1.84 µM (inactive).
In the case of `NCCSC(c1ccccc1)c1ccccc1`, the GI50 is 22.4 µM (inactive) in the experiment on A498; 31.8 µM (inactive) with ACHN; 43.8 µM (inactive) in the experiment on BT-549; 32.6 µM (inactive) in the experiment on CCRF-CEM; 33.2 µM with HCT-15; 17.7 µM (inactive) with HT-29. Also, the GI50 in the experiment with MCF7 was 19.3 µM (inactive); in the experiment on MDA-MB-231 it was 18.6 µM (inactive); in the experiment on NCI-H226 it was 31.2 µM (inactive); in the experiment on NCI-H23, 37.2 µM (inactive); with NCI-H460, 15.1 µM (inactive); in the experiment on RPMI-8226, 16 µM (inactive). In addition, the GI50 in the experiment with SF-295 is 18.2 µM (inactive); with SK-MEL-28, 18.6 µM (inactive); in the experiment with SK-MEL-5, 16.7 µM (inactive); in the experiment with SN12C, 35.5 µM (inactive).
Take `[N-]=[N+]=C1CNC(=O)NC1=O`: the GI50 in the experiment with ACHN is 69.3 µM (inactive); in the experiment on CCRF-CEM it was 24.3 µM (inactive); in the experiment on HCC 2998, > 100 µM (inactive); in the experiment with HCT-15 it was more than 100 µM; in the experiment on HT-29, > 100 µM (inactive); in the experiment on K562 it was > 100 µM (inactive). In addition, the GI50 is > 100 µM (inactive) in the experiment with MCF7; > 100 µM (inactive) with MDA-MB-231; > 100 µM (inactive) with NCI-H226; > 100 µM (inactive) in the experiment with NCI-H23; > 100 µM (inactive) in the experiment with NCI-H460; 28.8 µM (inactive) with RPMI-8226. For the same compound, the GI50 with SF-295, in the experiment with SK-MEL-28, with SK-MEL-5, with SN12C and in the experiment with T47D was > 100 µM (inactive) each time.
As to `CCOC(=O)CC1c2ccc(O)cc2OC(=O)C1c1ccc([N+](=O)[O-])cc1` (stereo not given), the GI50 in the experiment on A498 was 25.6 µM (inactive); in the experiment on ACHN, 25.2 µM (inactive); in the experiment with CCRF-CEM, 22.8 µM (inactive); in the experiment with HCC 2998 it was 20.3 µM (inactive); in the experiment with HCT-15 it was 30.4 µM; with HT-29, 35.2 µM (inactive). Besides, the GI50 is 30.4 µM (inactive) with K562; 14.8 µM (inactive) in the experiment on MCF7; 18.5 µM (inactive) with MDA-MB-231; 14.2 µM (inactive) in the experiment on NCI-H226; 27.7 µM (inactive) in the experiment on NCI-H23; 31.3 µM (inactive) in the experiment with NCI-H460. Also, the GI50 is 38.4 µM (inactive) with SF-295; 38 µM (inactive) with SK-MEL-28; 15.4 µM (inactive) in the experiment with SK-MEL-5; 21.8 µM (inactive) in the experiment on SN12C; 15.8 µM (inactive) with T47D.
Consider `O=C(CSc1nnc(-c2ccc(/N=C\c3ccc(Cl)cc3)cc2)o1)Nc1cccc(Cl)c1`, for which the GI50 was > 100 µM (inactive) in the experiment with ACHN; > 100 µM (inactive) with CCRF-CEM; more than 100 µM in the experiment with HCT-15; > 100 µM (inactive) in the experiment with HT-29; > 100 µM (inactive) with K562; > 100 µM (inactive) in the experiment on NCI-H226. For the same compound, the GI50 in the experiment on NCI-H23 was > 100 µM (inactive); in the experiment on NCI-H460, > 100 µM (inactive); in the experiment with RPMI-8226, 70 µM (inactive); with SF-295, > 100 µM (inactive); in the experiment on SK-MEL-28, > 100 µM (inactive); in the experiment on SK-MEL-5, > 100 µM (inactive). The GI50 in the experiment with SN12C was > 100 µM (inactive).
Take `CC(C)(C)C1=C(Br)C(OC(=O)C(F)(F)F)(C(C)(C)C)OP1(=O)c1ccccc1` (stereo not given): the GI50 in the experiment on A498 is 27.8 µM (inactive); in the experiment with ACHN, 32.7 µM (inactive); in the experiment with HCC 2998 it was 38.6 µM (inactive); with HCT-15, 31.5 µM; with HT-29 it was 37 µM (inactive); in the experiment with K562 it was 25.5 µM (inactive). Also, the GI50 in the experiment with MCF7 was 42.7 µM (inactive); with NCI-H226, 40.5 µM (inactive); in the experiment with NCI-H23 it was 33.7 µM (inactive); in the experiment with NCI-H460 it was 35.5 µM (inactive); with SF-295, 35.3 µM (inactive); with SK-MEL-28, > 100 µM (inactive). For the same compound, the values for the GI50 in the experiment on SK-MEL-5, in the experiment with SN12C and in the experiment on T47D were 65.3 µM (inactive), 39 µM (inactive) and 30 µM (inactive), respectively.
On to `O=C1NC(O)c2ccccc2O1` (stereo not given), for which the GI50 was > 100 µM (inactive) in the experiment with A498; > 100 µM (inactive) with ACHN; > 100 µM (inactive) in the experiment on BT-549; > 100 µM (inactive) in the experiment with CCRF-CEM; > 100 µM (inactive) with HCC 2998; more than 100 µM with HCT-15. Moreover, the GI50 in the experiment on HT-29, in the experiment with K562, in the experiment on MCF7, with MDA-MB-231, in the experiment on NCI-H226 and with NCI-H23 was > 100 µM (inactive) each time. The GI50 in the experiment with NCI-H460, in the experiment on SF-295, with SK-MEL-28, in the experiment on SK-MEL-5 and in the experiment on SN12C was > 100 µM (inactive) throughout.
Consider `COc1cc2c(cc1C)NC(=O)/C2=C\c1cccnc1`, for which the GI50 with A498 was 10.3 µM (inactive); in the experiment with ACHN, 26.9 µM (inactive); in the experiment on BT-549 it was 21.9 µM (inactive); in the experiment with CCRF-CEM, 20.8 µM (inactive); in the experiment with HCC 2998, 10 µM (inactive); with HCT-15, 16.4 µM. Besides, the GI50 in the experiment on HT-29 was 15.5 µM (inactive); in the experiment with K562 it was 9.4 µM (inactive); in the experiment on MCF7 it was 11.7 µM (inactive); in the experiment on NCI-H23, 10.8 µM (inactive); in the experiment on NCI-H460 it was 22.6 µM (inactive); in the experiment with RPMI-8226, 26.9 µM (inactive). The GI50 was 14.7 µM (inactive) in the experiment on SF-295; 50.4 µM (inactive) in the experiment on SK-MEL-28; 15.1 µM (inactive) in the experiment on SK-MEL-5; 15.7 µM (inactive) with SN12C; 3.91 µM (inactive) in the experiment on T47D.
As for `CN(Cc1cnc2nc(N)nc(N)c2n1)c1ccc(C(=O)NC(CCC(=O)NC(P(=O)(O)O)P(=O)(O)O)C(=O)O)cc1` (stereo not given), the GI50 in the experiment on ACHN is 49.7 µM (inactive); in the experiment on CCRF-CEM, 41.1 µM (inactive); with HCT-15 it was 22.9 µM; in the experiment on HT-29 it was 6.47 µM (inactive); with K562, 4.21 µM (inactive); in the experiment with MCF7, 39.8 µM (inactive). Besides, the GI50 was > 100 µM (inactive) in the experiment with MDA-MB-231; > 100 µM (inactive) with NCI-H226; 50.8 µM (inactive) in the experiment with NCI-H23; 9.62 µM (inactive) in the experiment on NCI-H460; 52.4 µM (inactive) in the experiment with RPMI-8226; 13.1 µM (inactive) in the experiment with SF-295. The GI50 with SK-MEL-28 is 83 µM (inactive); in the experiment with SK-MEL-5, 45.5 µM (inactive); in the experiment with SN12C, 55.2 µM (inactive); in the experiment with T47D, 26.3 µM (inactive).

The values are drawn from ChEMBL document CHEMBL1201862, “PubChem BioAssay data set” (2004).
